Paper PMC9638024, “Functional rewiring of G protein-coupled receptor signaling in human labor” (Cell Reports, 2022)

Molecular target: T1, EP2 (prostaglandin E2 receptor EP2) (Homo sapiens, UniProt P43116)
T1 construct: gene PTGER2; FLAG-EP2 stably expressed in HEK 293 cells
Test: cAMP accumulation dose-response in HEK […] cells stably expressing FLAG-EP2 (agonist)
Type: cell-based

T1 sequence (P43116 whole entry): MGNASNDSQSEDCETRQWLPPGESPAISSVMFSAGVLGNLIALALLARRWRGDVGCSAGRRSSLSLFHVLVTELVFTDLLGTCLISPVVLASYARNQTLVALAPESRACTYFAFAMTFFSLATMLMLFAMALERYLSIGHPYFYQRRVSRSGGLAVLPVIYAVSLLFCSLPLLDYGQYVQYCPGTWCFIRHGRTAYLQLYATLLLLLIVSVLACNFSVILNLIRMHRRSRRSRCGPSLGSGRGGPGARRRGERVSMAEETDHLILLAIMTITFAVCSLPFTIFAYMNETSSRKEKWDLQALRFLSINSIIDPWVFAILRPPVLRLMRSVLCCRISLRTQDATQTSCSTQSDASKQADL

CC(C)OC(=O)COc1cccc(NC(=O)c2cc(-c3cccc(F)c3)ccc2F)c1 [PGN9856i]
EC50: 2.11 nM
